Measurements published in ChEMBL document CHEMBL4118041, “Targeted Dereplication of Microbial Natural Products by High-Resolution MS and Predicted LC Retention Time” (2017).

Test system: A2058
Experiment: Cytotoxicity against human A2058 cells assessed as survival at 250 uM relative to control
Type: functional
Details: read-out: Survival

## CC1=C(NC(=O)CC(C)C)C(=O)N(CCCC(=O)O)C1=O
  viability at 250 µM: 100%
